In PubChem BioAssay AID1963867 (Molecular Pharmacology Branch, DTP, NCI, 2024):

System: KRAS-mutant PDC tumor spheroid with HUVEC/MSC, viability
Assay: Anticancer human tumor 327498-153-R-J2-PDC patient-derived uterine carcinosarcoma cell line growth inhibition [KRAS2]
Conditions: for IC50: curve of first compound; for viability, T/C: stronger effect = lower value
Outline: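 Combination screen of spheroid viability in tumor-cell co-cultures with endothelial (HUVEC) and mesenchymal stem cell stroma. Each agent was tested in half-log dilutions, topping at clinical Cmax or at 10 microM without a known Cmax.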

[1] = second compound 0.1 µM, first compound 0.0316 µM
[2] = second compound 0.1 µM, first compound 0.1 µM
[3] = second compound 0.1 µM, first compound 0.316 µM
[4] = second compound 0.1 µM, first compound 1 µM
[5] = second compound 0.316 µM, first compound 0.0316 µM
[6] = second compound 0.316 µM, first compound 0.1 µM
[7] = second compound 0.316 µM, first compound 0.316 µM
[8] = second compound 0.316 µM, first compound 1 µM
[9] = second compound 1 µM, first compound 0.0316 µM
[10] = second compound 1 µM, first compound 0.1 µM
[11] = second compound 1 µM, first compound 0.316 µM
[12] = second compound 1 µM, first compound 1 µM
[13] = second compound 3.16 µM, first compound 0.0316 µM
[14] = second compound 3.16 µM, first compound 0.1 µM
[15] = second compound 3.16 µM, first compound 0.316 µM
[16] = second compound 3.16 µM, first compound 1 µM
[17] = second compound 10 µM, first compound 0.0316 µM
[18] = second compound 10 µM, first compound 0.1 µM
[19] = second compound 10 µM, first compound 0.316 µM
[20] = second compound 10 µM, first compound 1 µM
[21] = second compound 0.1 µM, first compound 3.16 µM
[22] = second compound 0.1 µM, first compound 10 µM
[23] = second compound 0.316 µM, first compound 3.16 µM
[24] = second compound 0.316 µM, first compound 10 µM
[25] = second compound 1 µM, first compound 3.16 µM
[26] = second compound 1 µM, first compound 10 µM
[27] = second compound 3.16 µM, first compound 3.16 µM
[28] = second compound 3.16 µM, first compound 10 µM
[29] = second compound 10 µM, first compound 3.16 µM
[30] = second compound 10 µM, first compound 10 µM
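Note: spheroids exposed to agents for seven days before reading.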
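Throughout, for viability, T/C: 100% = DMSO vehicle wells so lower means fewer viable cells.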

SMILES	IC50 (second compound 0.1 µM) [µM]	IC50 (second compound 0.316 µM) [µM]	IC50 (second compound 1 µM) [µM]	IC50 (second compound 3.16 µM) [µM]	IC50 (second compound 10 µM) [µM]	viability, T/C [1] [%]	viability, T/C [2] [%]	viability, T/C [3] [%]	viability, T/C [4] [%]	viability, T/C [5] [%]	viability, T/C [6] [%]	viability, T/C [7] [%]	viability, T/C [8] [%]	viability, T/C [9] [%]	viability, T/C [10] [%]	viability, T/C [11] [%]	viability, T/C [12] [%]	viability, T/C [13] [%]	viability, T/C [14] [%]	viability, T/C [15] [%]	other results
CCN1CCN(Cc2ccc(Nc3ncc(F)c(-c4cc(F)c5nc(C)n(C(C)C)c5c4)n3)nc2)CC1 + CNCc1ccccc1-c1csc(C(C)Nc2nc(C)nc3cc(OC)c(OC)cc23)c1	0.0429	0.0131	0.00926	< 0.00316	< 0.00316	52.9	37.5	41.7	47	41.3	35.5	39.6	43.9	36.4	34.5	36.2	21.8	0.11	0.06	0.24	viability, T/C (second compound 0.1 µM, first compound 0.00316 µM): 65.2%; viability, T/C (second compound 0.1 µM, first compound 0.01 µM): 58.8%; viability, T/C (second compound 0.316 µM, first compound 0.00316 µM): 69.4%; viability, T/C (second compound 0.316 µM, first compound 0.01 µM): 52.8%; viability, T/C (second compound 1 µM, first compound 0.00316 µM): 72.7%; viability, T/C (second compound 1 µM, first compound 0.01 µM): 46.9%; viability, T/C (second compound 3.16 µM, first compound 0.00316 µM): 0.58%; viability, T/C (second compound 3.16 µM, first compound 0.01 µM): 0.79%; viability, T/C [16]: 0.25%; viability, T/C (second compound 10 µM, first compound 0.00316 µM): 0.56%; viability, T/C (second compound 10 µM, first compound 0.01 µM): 0.69%; viability, T/C [17]: 0.91%; viability, T/C [18]: 0.68%; viability, T/C [19]: 0.69%; viability, T/C [20]: 0.69%
CCNC(=O)CC1N=C(c2ccc(Cl)cc2)c2cc(OC)ccc2-n2c(C)nnc21 (stereo not given) + CNCc1ccccc1-c1csc(C(C)Nc2nc(C)nc3cc(OC)c(OC)cc23)c1	1.39	0.478	0.382	< 0.0316	< 0.0316	88	76.8	59	55.8	69.5	69.6	53.4	41	77.6	64	52.6	40.3	1.88	1.54	0.18	viability, T/C [21]: 43.4%; viability, T/C [22]: 34%; viability, T/C [23]: 36.3%; viability, T/C [24]: 29.8%; viability, T/C [25]: 33.1%; viability, T/C [26]: 28%; viability, T/C [16]: 1.98%; viability, T/C [27]: 0.12%; viability, T/C [28]: 0.21%; viability, T/C [17]: 1.35%; viability, T/C [18]: 1.7%; viability, T/C [19]: 0.26%; viability, T/C [20]: 0.21%; viability, T/C [29]: 0.2%; viability, T/C [30]: 0.28%
Cn1nccc1Nc1nccc(-c2cc3c(s2)C(C)(C)N(CCN2CCOCC2)C3=O)n1 + CNCc1ccccc1-c1csc(C(C)Nc2nc(C)nc3cc(OC)c(OC)cc23)c1	1.64	1.17	1.03	< 0.0316	< 0.0316	73.9	76.8	64	55.7	77.7	62.6	64.6	50.2	62	62	58.6	48.2	0.13	0.11	0.1	viability, T/C [21]: 43.5%; viability, T/C [22]: 35.9%; viability, T/C [23]: 42.2%; viability, T/C [24]: 32.5%; viability, T/C [25]: 41.3%; viability, T/C [26]: 34.1%; viability, T/C [16]: 2.37%; viability, T/C [27]: 0.1%; viability, T/C [28]: 0.18%; viability, T/C [17]: 0.14%; viability, T/C [18]: 0.68%; viability, T/C [19]: 0.13%; viability, T/C [20]: 0.38%; viability, T/C [29]: 0.22%; viability, T/C [30]: 0.23%
